# Source: patent US5952189A (priority 1997, dated 1999)
# System: mice
# Experiment: Toxicity of DK120 in mice on daily injection
# Assay type: in vivo
# Method: In preliminary studies daily injection of mice with DK120 at 20 mg/kg was lethal. The reason for toxicity is not clear but may be related to the ability of DK120 to inhibit chymotrypsin-like enzymes that may be essential for the normal function of various tissues.
smiles,measurement,setting,value
"C[C@H](NC(=O)OCc1ccccc1)C(=O)N[C@@H](C)C(=O)NC(Cc1ccccc1)B(O)O (some centres unmarked) [DK120, carbobenzoxy-ala-ala-borophe]",Lethality,"daily injection, 20 mg/kg, preliminary studies",lethal
same,Toxicity of compound alone,"mouse, in vivo",relatively toxic
